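In this assay, cells in 96-well plates receive the compound at five concentrations for 48 hours. Endpoints are linearly interpolated between the surrounding concentrations. At the GI50, growth is halved. TGI: total growth inhibition.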
Assays:
Assay in all cases: NCI-60 cell line screen, 48 h
[1] = system: CCRF-CEM leukemia
[2] = system: HOP-92 NSCLC
[3] = system: MOLT-4 leukemia
[4] = system: OVCAR-3 ovarian
[5] = system: SF-539 CNS
[6] = system: SK-MEL-2 melanoma
[7] = system: SK-OV-3 ovarian
[8] = system: U251 CNS
[9] = system: HCC-2998 colon
[10] = system: OVCAR-5 ovarian

Compound	TGI [1]	TGI [2]	TGI [3]	TGI [4]	TGI [5]	TGI [6]	TGI [7]	TGI [8]	TGI [9]	TGI [10]	GI50 [1]	GI50 [9]	GI50 [3]	GI50 [4]	GI50 [10]	GI50 [5]	GI50 [6]	GI50 [7]	GI50 [8]	GI50 [2]
Cc1cccc(NC(=O)CC#N)c1Cl	> 100 µM	> 100 µM	> 100 µM	> 100 µM	> 100 µM	> 100 µM	> 100 µM	> 100 µM	–	–	–	–	–	–	–	–	–	–	–	–
COc1ccc(CC2C3=C(CCCC3)CCN2C)cc1 (stereo unspecified)	> 100 µM	–	> 100 µM	> 100 µM	> 100 µM	> 100 µM	> 100 µM	> 100 µM	> 100 µM	> 100 µM	–	–	–	–	–	–	–	–	–	–
O=[N+]([O-])c1ccc(-c2cn(-c3ccc(Cl)cc3)cn2)cc1	> 100 µM	–	> 100 µM	35.3 µM	–	> 100 µM	24.4 µM	> 100 µM	> 100 µM	> 100 µM	–	–	–	–	–	–	–	–	–	–
CC(Oc1ccc2cc(C(=O)c3ccccc3)c(=O)oc2c1)C(=O)O (stereo unspecified)	> 100 µM	> 100 µM	> 100 µM	> 100 µM	> 100 µM	–	> 100 µM	> 100 µM	> 100 µM	–	–	–	–	–	–	–	–	–	–	–
C[C@@]1(N2C(=O)OC[C@@H]2c2ccccc2)C(=O)N([C@H](CC(=O)N2CCC(N3CCCCC3)CC2)C(=O)NCc2cccc(C(F)(F)F)c2)[C@@H]1/C=C/c1ccccc1	7.07 µM	–	6.42 µM	3.91 µM	3.32 µM	4.22 µM	4.83 µM	3.43 µM	3.79 µM	9.4 µM	2.97 µM	1.98 µM	2.26 µM	1.85 µM	2.78 µM	1.77 µM	2.13 µM	2.09 µM	1.83 µM	–
CC(=O)OCC1OC(Sc2ccccn2)C=CC1OC(C)=O (stereo unspecified)	> 100 µM	> 100 µM	> 100 µM	> 100 µM	> 100 µM	–	> 100 µM	> 100 µM	> 100 µM	> 100 µM	–	–	–	–	–	–	–	–	–	–
O=c1[nH]c(/C=C(\O)c2ccncc2)nc2ccccc12	> 100 µM	–	> 100 µM	> 100 µM	–	> 100 µM	> 100 µM	> 100 µM	> 100 µM	> 100 µM	–	–	–	–	–	–	–	–	–	–
CN(C)CCC1(C2=CCCC2)CC/C(=C\c2ccccc2)C1=O (stereo unspecified)	50.3 µM	45.6 µM	39 µM	28.5 µM	30.5 µM	31 µM	–	30.3 µM	29.2 µM	35.7 µM	–	–	–	–	–	–	–	–	–	–
Oc1cc2c(cc1O)-c1[nH]ncc1CC2	47.7 µM	66.4 µM	88.8 µM	–	> 100 µM	> 100 µM	> 100 µM	44.6 µM	50.7 µM	> 100 µM	–	–	–	–	–	–	–	–	–	–
O=c1cccc(C#CC#C/C=C/CO)o1	–	5.85 µM	> 100 µM	6.12 µM	8.26 µM	> 31.3 µM	22.8 µM	3.84 µM	3.52 µM	4.34 µM	–	2.09 µM	9.1 µM	2.33 µM	2.09 µM	3.19 µM	7.52 µM	10.8 µM	1.89 µM	2.74 µM
C[C@]12CC[C@H]3[C@@H](C[C@@H]4N=C(c5ccc(O)cc5)S[C@@]45C[C@H](O)CC[C@]35C)[C@@H]1CC[C@@H]2O	47.2 µM	–	> 100 µM	83.7 µM	3.23 µM	69.4 µM	> 100 µM	67.3 µM	> 100 µM	> 100 µM	2.05 µM	31.9 µM	1.93 µM	8.67 µM	13.3 µM	0.454 µM	4.42 µM	19 µM	2.23 µM	–
Cc1nc2cc(N)c(Cl)cc2[nH]1	> 100 µM	–	> 100 µM	> 100 µM	–	> 100 µM	> 100 µM	> 100 µM	–	> 100 µM	–	–	–	–	–	–	–	–	–	–
O=C(c1ccc2c3c(ccc(C(=O)C(F)(F)F)c13)CC2)C(F)(F)F	–	76.2 µM	> 100 µM	> 100 µM	> 100 µM	> 100 µM	> 100 µM	> 100 µM	> 100 µM	> 100 µM	–	–	–	–	–	–	–	–	–	–
O=C1C(N2C(=O)c3ccccc3C2=O)CN1C(COCc1ccccc1)c1ccc(OCc2ccccc2)cc1 (stereo unspecified)	> 100 µM	> 100 µM	> 100 µM	> 100 µM	> 100 µM	–	> 100 µM	> 100 µM	> 100 µM	> 100 µM	–	–	–	–	–	–	–	–	–	–
COc1ccc(C(=O)O)c(Cc2ccc3ccccc3c2)c1	> 100 µM	> 100 µM	> 100 µM	> 100 µM	> 100 µM	> 100 µM	> 100 µM	> 100 µM	–	> 100 µM	–	–	–	–	–	–	–	–	–	–
CC[C@]12CCCN3CC[C@]4(C(=C(C(=O)OC)C1)Nc1ccccc14)[C@@H]32	70 µM	24.6 µM	43.7 µM	31.1 µM	37.9 µM	39.2 µM	–	29.6 µM	29 µM	34.1 µM	21.4 µM	14.6 µM	18.8 µM	17 µM	15.9 µM	18.2 µM	16.8 µM	–	15.1 µM	7.09 µM
CN1CCCCC1CCN1c2ccccc2Sc2ccc(S(C)=O)cc21 (stereo unspecified)	> 100 µM	> 100 µM	> 100 µM	> 100 µM	> 100 µM	> 100 µM	> 100 µM	> 100 µM	–	> 100 µM	–	–	–	–	–	–	–	–	–	–
CCCCCCCCCC(CCCC(O)CC(=O)O)OC1OC(COC2OC(C)C(O)C(O)C2O)C(O)C(O)C1OC1OC(CO)C(O)C(O)C1OC1OC(C)C(O)C(O)C1O (stereo unspecified)	> 40 µM	> 40 µM	> 40 µM	> 40 µM	> 40 µM	–	> 40 µM	> 40 µM	> 40 µM	> 40 µM	> 40 µM	> 40 µM	> 40 µM	> 40 µM	> 40 µM	> 40 µM	–	> 40 µM	> 40 µM	> 40 µM
CC(O[Si](C)(C)C)C1C=CC(C)n2c(=O)n(-c3ccccc3)c(=O)n21 (stereo unspecified)	–	–	> 100 µM	> 100 µM	> 100 µM	> 100 µM	> 100 µM	> 100 µM	> 100 µM	> 100 µM	–	–	–	–	–	–	–	–	–	–

Compound	TGI [1]	TGI [2]	TGI [3]	TGI [4]	TGI [5]	TGI [6]	TGI [7]	TGI [8]	TGI [9]	TGI [10]	GI50 [1]	GI50 [9]	GI50 [3]	GI50 [4]	GI50 [10]	GI50 [5]	GI50 [6]	GI50 [7]	GI50 [8]	GI50 [2]
CCN(CC(COc1ccc2c(c1)[n+]([O-])nc(N)[n+]2[O-])OC(C)=O)C(C)=O (stereo unspecified)	> 100 µM	–	> 100 µM	> 100 µM	> 100 µM	> 100 µM	74.9 µM	> 100 µM	–	> 100 µM	–	–	–	–	–	–	–	–	–	–
Cc1ccc(S(=O)(=O)n2cc(-c3nnnn3-c3ccc(Cl)cc3)c(=O)c3ccccc32)cc1	> 100 µM	–	57 µM	> 100 µM	> 100 µM	> 100 µM	> 100 µM	> 100 µM	> 100 µM	> 100 µM	43.4 µM	> 100 µM	21.2 µM	> 100 µM	> 100 µM	> 100 µM	> 100 µM	> 100 µM	88.6 µM	–
COc1ccc(-c2coc3cc(OC)cc(O)c3c2=O)cc1	> 100 µM	94.6 µM	–	> 100 µM	> 100 µM	–	> 100 µM	> 100 µM	> 100 µM	> 100 µM	–	–	–	–	–	–	–	–	–	–
CN(C)/C(N)=N/C(N)=S	–	> 100 µM	> 100 µM	> 100 µM	> 100 µM	–	> 100 µM	> 100 µM	> 100 µM	> 100 µM	–	–	–	–	–	–	–	–	–	–
CCOC(=O)/C=C/c1ccccn1	> 100 µM	> 100 µM	> 100 µM	–	> 100 µM	> 100 µM	> 100 µM	> 100 µM	> 100 µM	> 100 µM	–	–	–	–	–	–	–	–	–	–
O=C1C(Cl)=C(Nc2cccc(O)c2)C(=O)N1c1cccc(Cl)c1Cl	50.4 µM	5.91 µM	11.8 µM	–	–	35.9 µM	> 100 µM	30.8 µM	–	57.7 µM	8.38 µM	–	2.31 µM	–	22.4 µM	–	15.2 µM	32.9 µM	12.4 µM	0.262 µM
COc1ccc(C#CCC(OC2OC(CO)C(O)C(O)C2O)C(O)c2ccc(OC)c(OC)c2)cc1OC (stereo unspecified)	> 100 µM	–	> 100 µM	> 100 µM	> 100 µM	> 100 µM	> 100 µM	> 100 µM	> 100 µM	> 100 µM	–	–	–	–	–	–	–	–	–	–
C=C(CN1CCN(c2cccc(F)c2)CC1)c1ccc(C(=O)Nc2ccccc2N)cc1	–	6.97 µM	2.76 µM	17.7 µM	5.77 µM	> 100 µM	> 100 µM	43 µM	11 µM	> 100 µM	–	2.98 µM	0.315 µM	1.94 µM	2.61 µM	1.45 µM	4.89 µM	5.31 µM	1.41 µM	0.6 µM
CSc1nc2c(c(=O)[nH]1)C(c1ccc(Cl)cc1)C1=C(N2)/C(=C/c2ccc(Cl)cc2)CNC1 (stereo unspecified)	8.99 µM	–	11 µM	5.19 µM	3.5 µM	9.53 µM	6.33 µM	3.09 µM	3.57 µM	6.25 µM	2.55 µM	1.96 µM	2.45 µM	2.23 µM	2.53 µM	1.78 µM	2.76 µM	2.66 µM	1.61 µM	–
Cc1cc2c(cc1C)[n+](=O)c(C(=O)/C=C/c1ccccc1Cl)c(C)n2[O-]	> 100 µM	–	> 100 µM	88.8 µM	42.6 µM	68.7 µM	73.1 µM	84.4 µM	34.2 µM	> 100 µM	–	–	–	–	–	–	–	–	–	–
CC1=C(c2cc(C(=O)Nc3nccs3)nc(NC#N)n2)Sc2ccccc2N1	> 100 µM	> 100 µM	> 100 µM	> 100 µM	> 100 µM	> 100 µM	–	> 100 µM	–	> 100 µM	–	–	–	–	–	–	–	–	–	–
O=C(CCl)Nc1ccc2c(c1)C(=O)c1ccc(NC(=O)CCl)cc1C2=O	0.896 µM	2.61 µM	2.13 µM	0.885 µM	0.866 µM	3.84 µM	7.01 µM	–	3.79 µM	1.63 µM	0.127 µM	1.77 µM	0.241 µM	0.277 µM	0.371 µM	0.301 µM	0.783 µM	1.63 µM	–	1.13 µM
C[n+]1ccc(-c2c3nc(c(-c4ccc5c(ccc[n+]5C)c4)c4ccc([nH]4)c(-c4cc[n+](C)cc4)c4nc(c(-c5ccc6c(ccc[n+]6C)c5)c5ccc2[nH]5)C=C4)C=C3)cc1	> 50 µM	> 50 µM	> 50 µM	40.5 µM	–	> 50 µM	> 50 µM	> 50 µM	> 50 µM	> 50 µM	> 50 µM	49.7 µM	> 50 µM	7.91 µM	> 50 µM	–	22.4 µM	> 50 µM	28.8 µM	25.1 µM
CC1=CC2C(C(C)C)CC1C1C(=O)OC(=O)C21 (stereo unspecified)	–	> 100 µM	–	58.8 µM	> 100 µM	> 100 µM	> 100 µM	> 100 µM	> 100 µM	> 100 µM	–	–	–	–	–	–	–	–	–	–
O=c1/c(=C/c2ccc3c(c2)OCO3)sc2nnc(-c3ccco3)n12	> 100 µM	–	> 100 µM	> 100 µM	> 100 µM	> 100 µM	> 100 µM	> 100 µM	> 100 µM	> 100 µM	–	–	–	–	–	–	–	–	–	–
COc1ccc(Cn2c(Br)c3c(c2-c2cc(OC)c(OC)c(OC)c2)CCc2sc(NC(C)=O)nc2-3)cc1	–	9.64 µM	> 100 µM	> 100 µM	6.79 µM	> 100 µM	–	> 100 µM	> 100 µM	> 100 µM	–	3.58 µM	4.37 µM	3.63 µM	4.39 µM	2.41 µM	3.82 µM	–	3.69 µM	1.88 µM
CN(C)/C=N/c1nc2ncn(CCOC(=O)c3ccccc3)c2c(=O)[nH]1	> 100 µM	> 100 µM	–	> 100 µM	> 100 µM	> 100 µM	> 100 µM	> 100 µM	–	> 100 µM	–	–	–	–	–	–	–	–	–	–
CCSc1nc2n(c(=S)n1)CCN2C	–	–	39.1 µM	49.3 µM	58.9 µM	41.7 µM	50.2 µM	41.2 µM	30.3 µM	42.7 µM	–	–	–	–	–	–	–	–	–	–
